Non-standard residues stand in square brackets, D forms with d. No end group written: not given here. pGlu = O=C1CC[C@@H](C(=O)O)N1

The results in this text go back to patent publication US8785374B2, “Inhibitors of mammalian tight junction opening” (Alba Therapeutics Corporation, priority 2007, dated 2014).

Experiment [1] deals with CaCo2 monolayers (tight junctions). Description: Inhibition of agonist-induced Lucifer Yellow flux through CaCo2 monolayers. Conditions: inhibition of the increase in Lucifer Yellow permeability induced by SEQ ID NO:70 (FCIGRL); CaCo2 monolayers. The text has this:
(§1) Measurement of the Inhibition of the Decrease in Trans Epithelial Electric Resistance (TEER) and Epithelial Flux of a Fluorescent Marker Lucifer Yellow
(§2) Antagonists of tight junctions can be identified by their ability to prevent or decrease the enhancement of the flux of compounds (e.g. Lucifer Yellow) through the monolayer induced by agonists of tight junctions (e.g., SEQ ID NO: 70). Antagonists of tight junctions can also be identified by their ability to prevent the decrease in TEER induced by agonists of tight junctions (e.g., SEQ ID NO: 70).
(§3) Tight junction antagonists can be identified using the following method:
(§4) Prepare Modified Hank's Balanced Salt Solution (MHBSS) by obtaining IL bottle of HBSS removing 10 ml of HBSS and replacing it with 10 ml HEPES buffer pH 7.0. Adjust pH to 7.4±0.1 using concentrated NaOH (10N).
(§5) Remove Caco-2 cells from incubator, grown on 12-well, […], polycarbonate Transwell® filters (Corning) and record passage number, date cells seeded and age in days.
(§6) Aspirate cell culture medium from both the apical (AP) and basolateral (BL) compartments, replacing with 0.5 ml and 1.5 ml of MHBSS, respectively. Incubate cells at 37° C. for 30 minutes.
(§7) Prepare a stock solution of the Antagonist Pretreatment Solution by dissolving the appropriate amount of antagonist in MHBSS. Vortex or sonicate the solution until it is clear then adjust pH to 7.4±0.1 using 1N NaOH. Preincubate each filter for 30 min with these solutions at 37° C. and 50 RPM.
(§8) Prepare stock solutions of Antagonist Treatment Solution by dissolving appropriate amounts of antagonist and agonist (for example, a peptide agonist such as a peptide having the sequence FCIGRL (SEQ ID NO: 70)) in 7.5 mM Lucifer Yellow solution in MHBSS. Vortex or sonicate the solution until it is clear then adjust pH to 7.4±0.1 using 1N NaOH.
(§9) Aspirate Antagonist Pretreatment Solution from the apical compartment of each filter (n=3 per condition) and replace with 0.5 ml of control and test solutions.
(§10) Place all plates into incubator set at 37° C. (±0.2), 50 RPM (±5) for a total of 180 minutes.
At t=60, 120 and 180 minutes remove 100 μl from each basolateral compartment and place it in a 96-well plate for Lucifer Yellow analysis, replace with 100 μl of HBSS.
Make a Lucifer Yellow standard curve with the following dilutions (7500 μM, 3750 μM, 750 μM, 375 μM, 75 μM, 37.5 μM, 7.5 μM, 3.75 μM, 0.75 μM) and pipette 100 μL of each into a 96-well plate except for the first three standards mentioned above which require a 1:10 dilution prior to transferring to the 96-well plate.
At t=0 make 1:10 dilutions of each starting Antagonist Treatment Solution mentioned above and pipette 100 μL of each into a 96-well plate.
At t=180 make 1:10 dilutions of Antagonist Treatment Solution from the apical compartment of each filter and pipette 100 μL of each into the 96-well plate.
Analyze each 96-well plate in a Tecan Spectra Fluor Plus using Magellan at 485 and 535 nm.
(§11) Cells: Caco-2 cells passage 40-60 grown on Transwell® plates for 21-28 days
(§12) SEQ ID NO: 70 is a 6-mer peptide tight junction agonist having the sequence FCIGRL. See US patent publication US 2005/0059593 A1. In the following tables + indicates attenuation of the effects of the tight junction agonist were observed and − indicates no attenuation of the effects of the tight junction agonist were observed.
(In general: Caco-2 cells form a polarised layer with tight junctions and transporters.)

Experiment [2] shares this test system. Description: Inhibition of agonist-induced decrease in trans epithelial electric resistance (TEER) of CaCo2 monolayers. The conditions noted are these: inhibition of the reduction in TEER induced by SEQ ID NO:70 (FCIGRL); CaCo2 monolayers.
Description: as §1, §2, §3, §4, §5, §6
Using the MilliCell®-ERS instrument (Millipore), measure and record the transepithelial electrical resistance (TEER) across each filter and record.
as §7, §8, §9, §10
At t=30, 60, 120 and 180 minutes, measure and record the transepithelial electrical resistance (TEER) across each filter using the MilliCell-ERS instrument.
as §11, §12

As to “Glp-Tyr-Gly ([pGlu]-Tyr-Gly) [SEQ ID NO: 44]”, the “Reduced LY Permeability” value in experiment [1] was “−”. In experiment [2], the “Prevented TEER Reduction” value is “−”.

In the case of “Glp-Val-Gly ([pGlu]-Val-Gly) [SEQ ID NO: 36]”, in experiment [1], the “Reduced LY Permeability” value is listed as “−”. In addition, the “Prevented TEER Reduction” value in experiment [2] is “−”.

For “Glu-Pro-Gly (EPG; Tight junction antagonist) [SEQ ID NO: 23]”, the “Reduced LY Permeability” value in experiment [1] is listed as “+”. Further, the “Prevented TEER Reduction” value in experiment [2] is reported as “+”.

Regarding “Gly-(d)Pro-(d)Gln (Gly-[dP]-[dQ]) [SEQ ID NO: 16]”, in experiment [1], the “Reduced LY Permeability” value is reported as “−”. Further, in experiment [2], the “Prevented TEER Reduction” value is recorded as “−”.

Turning to “Gly-(d)Pro-Gln (Gly-[dP]-Gln) [SEQ ID NO: 14]”, in experiment [1], the “Reduced LY Permeability” value is “−”. Further, in experiment [2], the “Prevented TEER Reduction” value is recorded as “−”.

As for “Gly-Pro-(d)Gln (Gly-Pro-[dQ]) [SEQ ID NO: 15]”, the “Reduced LY Permeability” value in experiment [1] was “−”. The “Prevented TEER Reduction” value in experiment [2] was “−”.

On to “Gly-Pro-Gln (GPQ; Tight junction antagonist) [SEQ ID NO: 13]”, for which, in experiment [1], the “Reduced LY Permeability” value is listed as “+”. The “Prevented TEER Reduction” value in experiment [2] is given as “+”.

In the case of “Gly-Pro-Gly (GPG; Tight junction antagonist) [SEQ ID NO: 22]”, the “Reduced LY Permeability” value in experiment [1] is “+”. Moreover, the “Prevented TEER Reduction” value in experiment [2] is “+”.

As to “His-Pro-Gly (HPG; Tight junction antagonist) [SEQ ID NO: 18]”, in experiment [1], the “Reduced LY Permeability” value was “+”. The “Prevented TEER Reduction” value in experiment [2] is given as “+”.

For “Ile-Pro-Gly (IPG; Tight junction antagonist) [SEQ ID NO: 31]”, in experiment [1], the “Reduced LY Permeability” value is “+”. In addition, the “Prevented TEER Reduction” value in experiment [2] is “+”.

As for “Leu-Pro-Gly (LPG; Tight junction antagonist) [SEQ ID NO: 25]”, the “Reduced LY Permeability” value in experiment [1] is “+”. Also, the “Prevented TEER Reduction” value in experiment [2] is listed as “+”.

Take “Leu-Val-Gln-Pro-Gly (LVQPG; Tight junction antagonist) [SEQ ID NO: 4]”: the “Reduced LY Permeability” value in experiment [1] is “+”. In experiment [2], the “Prevented TEER Reduction” value is given as “+”.

Take “Lys-Pro-Gly (KPG; Tight junction antagonist) [SEQ ID NO: 24]”: the “Reduced LY Permeability” value in experiment [1] is “+”. Further, in experiment [2], the “Prevented TEER Reduction” value is “+”.

Take “Met-Pro-Gly (MPG; Tight junction antagonist) [SEQ ID NO: 26]”: in experiment [1], the “Reduced LY Permeability” value was “+”. Further, in experiment [2], the “Prevented TEER Reduction” value is given as “+”.

Consider “Phe-Pro-Gly (FPG; Tight junction antagonist) [SEQ ID NO: 21]”, for which the “Reduced LY Permeability” value in experiment [1] was “+”. Moreover, in experiment [2], the “Prevented TEER Reduction” value was “+”.

For “Pro-Pro-Gly (PPG; Tight junction antagonist) [SEQ ID NO: 33]”, the “Reduced LY Permeability” value in experiment [1] is reported as “−”. For the same substance, the “Prevented TEER Reduction” value in experiment [2] is reported as “−”.

With “Ser-Pro-Gly (SPG; Tight junction antagonist) [SEQ ID NO: 28]”, in experiment [1], the “Reduced LY Permeability” value is given as “+”. Besides, the “Prevented TEER Reduction” value in experiment [2] is “+”.

With “Thr-Pro-Gly (TPG; Tight junction antagonist) [SEQ ID NO: 30]”, in experiment [1], the “Reduced LY Permeability” value was “+”. Besides, in experiment [2], the “Prevented TEER Reduction” value is on record as “−”.

Regarding “Trp-Pro-Gly (WPG; Tight junction antagonist) [SEQ ID NO: 32]”, in experiment [1], the “Reduced LY Permeability” value was “+”. For the same substance, the “Prevented TEER Reduction” value in experiment [2] is “+”.

As for “Tyr-Pro-Gly (YPG; Tight junction antagonist) [SEQ ID NO: 29]”, the “Reduced LY Permeability” value in experiment [1] was “+”. The “Prevented TEER Reduction” value in experiment [2] is listed as “+”.

On to VLVQPG [SEQ ID NO: 3], for which, in experiment [1], the “Reduced LY Permeability” value is “+”. Besides, in experiment [2], the “Prevented TEER Reduction” value is given as “+”.

As to “Val-Gln-Pro-Gly (VQPG; Tight junction antagonist) [SEQ ID NO: 5]”, the “Reduced LY Permeability” value in experiment [1] is reported as “+”. In experiment [2], the “Prevented TEER Reduction” value is listed as “+”.

“Val-Pro-Gly (VPG; Tight junction antagonist) [SEQ ID NO: 34]”: in experiment [1], the “Reduced LY Permeability” value is recorded as “+”. In addition, the “Prevented TEER Reduction” value in experiment [2] is recorded as “−”.
